# System: dendritic cells in tumor draining lymph nodes
# Assay: Maturation of dendritic cells in tumor draining lymph nodes of mice (Example 5)
# Type: in vivo, mouse
# Settings: 24 hour after intratumoral injection, 10 μg MPLA
# Method: Immunocompetent mice were injected with Yale University Mouse Melanoma Exposed to Radiation 1.7 (YUMMER1.7) cells for in vivo modeling of immunogenic, cutaneous melanoma. 300,000 cells of YUMMER 1.7 melanoma cells in 50 μL of sterile PBS were intradermally injected into the left flank of syngeneic C57Bl/6 mice.
# The mice were watched for tumor growth for eight days until the mice were randomly divided into groups (n=10) based on tumor sizes between 40-90 mm^3. The mice received vehicle (10 μl distilled water), free MPLA (10 μg), NNP-MPLA (10 μg of active MPLA), and BNP-MPLA (10 μg of active MPLA) intratumorally. The mice were sacrificed either at 24 hours or 72 hours after the single intratumoral injection. The tumor draining lymph nodes, both axillary and inguinal, were collected from each mouse. A petri dish was used to collect the lymph nodes, and the frosted ends of microscope slides were used to gently release immune cells from the lymph nodes into fresh CRPMI and placed on ice until resuspension. […]
# After lymph node single cell collection, the cells were rinsed with sterile PBS and plated into a 96 round-bottom well plate at a concentration density of 1-2×10^6 cells per well then rinsed again with PBS. […] The stained cells were then detected by flow cytometer (Cytoflex, Beckman Coulter). […]
substance,measurement,value
monophosphoryl lipid A [free MPLA],dendritic cell maturation (CD80+CD86+ in CD11c+ cells) in TDLN,significant increase

# From patent publication US20230355801A1, “IMMUNOTHERAPY OF SKIN CANCER USING MPLA-LOADED HPG NANOPARTICLES” (Yale University, priority 2022, published 2023)
